# Patent US8034791B2, “Activation of Egr-1 promoter by DNA damaging chemotherapeutics” (The University of Chicago, priority 2001, dated 2011)
# Where two headings read alike, the source gives them in different places.
# Assays:
# PROb cells [1] = test: Chemo-inducibility of Ad.Egr-TNF.11D in vitro, PROb cells; format: cell-based, rat
# Procedure: (§1) PC-3 and PROb cells were plated, infected with Ad.Egr.TNF, and incubated as discussed above. After incubation, 200 μl of CM, with or without chemotherapeutic agents, including cisplatin (250 μM), doxorubicin (3 μM), 5-fluorouracil (100 mM), gemcitabine (3 mM) and paclitaxel (14 μM) were added. Conditioned medium was harvested 24 hrs. later, and TNF-α concentration was measured (Quantikine Human TNF-α ELISA kit, R & D Systems, Minneapolis, Minn.).
# PC-3 cells [2] = test: Chemo-sensitivity by MTS assay, PC-3 cells; format: cell-based, human; settings: PC-3, Ad.Egr-TNF.11D and chemotherapy 24 hrs
# Procedure: (§2) Chemo-sensitivity of PC-3 and PROb cells as determined by MTS assay. PC-3 and PROb cells were plated at a density of 10^5 cells/100 μl medium in 96-well tissue culture plates and incubated overnight. […] After incubation, 200 μl of complete media, with or without chemotherapeutic agents, was added. Chemotherapeutic agents used were at final concentrations of cisplatin at 46 and 460 μM, doxorubicin at 3 and 300 μM, 5-fluorouracil at 2 and 200 mM and paclitaxel at 1.4 and 140 μM. Media was removed 24 hrs later and each well was rinsed with 200 μl of complete media (CM) and aspirated. 100 μl of CM was then added with 20 μl of CellTiter 96® Aqueous One Solution Cell Proliferation Assay solution (Promega, Madison, Wis.), and the cells were allowed to incubate for 1 hr. Absorbance was measured at 490-650 nm.
# PROb xenografts [3] = settings: for induction of TNF-α protein: PROb xenografts, vector + IP agent vs vector alone, cisplatin 9, cyclophosphamide 160, doxorubicin 15, 5-FU 100, gemcitabine 500 mg/kg
# Procedure: (§3) Saline or chemotherapeutic agents administered IP on days 1 and 2, including 9 mg/kg cisplatin, 160 mg/kg cyclophosphamide, 15 mg/kg doxorubicin, 100 mg/kg 5-FU and 500 mg/kg gemcitabine. Animals were euthanized, and xenografts were harvested 24 hrs after the second IP injection. Xenografts were snap-frozen in liquid nitrogen and homogenized in RIPA buffer (150 mM NaCl, 10 mM Tris pH 7.5, 5 mM EDTA pH 7.5, 100 mM PMSF, 1 µg/ml leupeptin and 2 μg/ml aprotinin) using a Brinkman Polytron homogenizer (Kinematica AG, Lucerne, Switzerland). After three freeze-thaw lysis cycles, the homogenate was centrifuged at 7800×g in a Sorvall RC-5C SS34 rotor (Kendro Laboratory Products, Newtown, Conn.) for 10 min at 4° C. TNF-α levels in the supernatants were measured by ELISA as described above.
# PC-3 cells [4] = test: Chemo-inducibility of Ad.Egr-TNF.11D in vitro, PC-3 cells
# Procedure: as §1
# PC-3 cells [5] = test: Preliminary in vitro TNF-α induction, PC-3 cells; format: cell-based, human; settings: vector treated PC-3 cells (100 MOI), 24 hrs; cisplatin 250 μM, doxorubicin 3 μM, 5-FU 20 mM, paclitaxel 14 μM
# Procedure: (§4) In vitro measurement of TNF-α protein. PC-3 and PROb cells were plated in 96-well plates, grown overnight, and infected with Ad.Egr.TNF at 100 multiplicities of infection, incubated for three hrs, and were then treated with cisplatin (250 μM), doxorubicin (3 μM), 5-FU (20 mM) or paclitaxel (14 μM). Supernatants were harvested 24 hrs later and human TNF-α production was quantified by ELISA. Experiments were performed in quintuplicate.
# PROb cells [6] = test: Chemo-sensitivity by MTS assay, PROb cells; format: cell-based, rat; settings: Ad.Egr-TNF.11D and chemotherapy 24 hrs
# Procedure: as §2
# PROb cells [7] = test: Preliminary in vitro TNF-α induction, PROb cells; format: cell-based, rat; settings: PROb cells treated with Ad.TNF (100 MOI), 24 hrs; cisplatin 250 μM, doxorubicin 3 μM, 5-FU 20 mM, paclitaxel 14 μM
# Procedure: as §4
# PC-3 xenografts [8] = format: in vivo, athymic nude mice; settings: vector + IP agent days 1 and 2, cisplatin 9, cyclophosphamide 160, doxorubicin 15, 5-FU 100, gemcitabine 500 mg/kg
# Procedure: as §3
# PC-3 xenografts [9] = format: in vivo, nude mice; settings: IT vector 5×10^9 p.u. + IP agent vs vector and NS, cisplatin 9, cyclophosphamide 160, doxorubicin 15, 5-FU 100 mg/kg
# Procedure: (§5) In vivo measurement of TNF-α protein. PC-3 (1×10^7 cells) or PROb cells (5×10^6) in 100 μl PBS were injected subcutaneously into the right hind limb of nude mice. Tumor-bearing mice received IT Ad.Egr.TNF (5×10^9 p.u. in 10 μl) with 250 μl of complete media with NS or a chemotherapeutic agent, including cisplatin (9 mg/kg), cyclophosphamide (160 mg/kg), doxorubicin (15 mg/kg), 5-fluorouracil (100 mg/kg) and gemcitabine (500 mg/kg). Each mouse IP injections were administered 20 hrs after transfection, and two consecutive IT and IP injections were given. Animals were euthanized, and xenografts were harvested 48 hrs after the second IP injection. Xenografts were snap-frozen in liquid nitrogen and homogenized in RIPA buffer (150 mM NaCl, 10 mM Tris at pH 7.5, 5 mM EDTA at pH 7.5, 100 mM PMSF, 1 μg/ml leupeptin and 2 μg/ml aprotinin). After three freeze-thaw lysis cycles, the homogenate was centrifuged for 10 minutes at 4° C. TNF-α levels in the supernatants were measured as described above.
# PROb xenografts [10] = format: in vivo, nude mice; settings: IT vector 5×10^9 p.u. + IP agent vs vector plus NS, cisplatin 9, cyclophosphamide 160, doxorubicin 15, 5-FU 100, gemcitabine 500 mg/kg
# Procedure: as §5
# PC-3 cells [11] = test: N-acetyl cysteine effects on TNF-α production in vitro, PC-3 cells; format: cell-based, human
# Procedure: (§6) N-acetyl cysteine effects on TNF-α production in vitro. PC-3 and PROb cells were plated and infected with Ad.Egr-TNF.11D as described above. PC-3 and PROb cells were treated with NAC at 0 mM, 10 mM, 20 mM and 30 mM, followed immediately by the addition of 100 mM 5-FU. Conditioned medium was collected after 24 hrs of incubation at 37° C. and stored at −20° C. TNF-α levels were determined by ELISA.
# (§7) PC-3 and PROb cells were plated and infected with Ad.Egr-TNF.11D as above. Prior to the addition of chemotherapeutic agents (cisplatin, doxorubicin, 5-FU, gemcitabine and paclitaxel), 20 mM NAC in 0.1 ml complete medium was added to each well. Conditioned medium was collected after 24 hrs. of incubation at 37° C., and stored at −20° C. TNF-α levels were determined by ELISA.
# PROb cells [12] = test: N-acetyl cysteine effects on TNF-α production in vitro, PROb cells; format: cell-based, rat
# Procedure: as §6, §7
# PROb xenografts [13] = test: In vivo regrowth study, PROb xenografts; design: species or system athymic nude mice; settings: IT vector 2×10^8 p.u., IP cisplatin 3 mg/kg, 4 daily injections, cisplatin line = with null vector
# Procedure: (§8) In vivo regrowth studies. Seg-1 or PROb cells (5×10^6/0.1 ml) were injected in the right hind limb of nude mice. […] IP NS or cisplatin injections were given following the IT vector injection, and 4 consecutive daily IT and IP injections were given. Xenografts were measured every 2 days using calipers and tumor volume was calculated (length×width×thickness)/2. Fractional tumor volumes (V/Vo, Vo=day 0 volume) were calculated and plotted.
# Egr-1 promoter [14] = test: In vitro luciferase reporter assay, PROb cells; format: cell-based, rat
# Procedure: (§9) In vitro luciferase reporter assay. […] JM109 competent cells (Stratagene, La Jolla, Calif.) were transformed with these plasmids, endotoxin-free maxipreps (Qiagen, Valencia, Calif.) were prepared, and product confirmation was performed by PCR, sequencing, enzyme restriction, and gel electrophoresis.
# (§10) All groups were co-transfected with the Renilla luciferase reporter plasmid construct pRL-TK (HSV thymidine kinase promoter) to normalize for transfection efficiency. […] Cells were harvested 6 hrs later, and luciferase activity was measured using the Dual-Luciferase reporter assay system (Promega).
# Egr-1 promoter [15] = test: In vitro luciferase reporter assay, Seg-1 cells; format: cell-based, human
# Procedure: as §9, §10
# Seg-1 xenografts = test: In vivo regrowth study, Seg-1 xenografts; design: species or system athymic nude mice; settings: IT vector 2×10^8 p.u., IP cisplatin 3 mg/kg, 4 daily injections, cisplatin line = with null vector
# Procedure: as §8
# [16] = vector-infected PROb cells, 24 hrs, cisplatin 250 μM, doxorubicin 3 μM, 5-FU 100 mM, gemcitabine 3 mM, paclitaxel 14 μM
# [17] = higher concentration: cisplatin 460 μM, doxorubicin 300 μM, 5-FU 200 mM, taxol 140 μM
# [18] = lower concentration: cisplatin 46 μM, doxorubicin 3 μM, 5-FU 2 mM, taxol 1.4 μM
# [19] = vector-infected PC-3 cells, 24 hrs, cisplatin 250 μM, 5-FU 100 mM, gemcitabine 3 mM, paclitaxel 14 μM
Molecule,increase in TNF-α levels (PROb cells [1]; [16]),surviving fraction (PC-3 cells [2]; [17]),surviving fraction (PC-3 cells [2]; [18]),induction of TNF-α protein (PROb xenografts [3]),increase in TNF-α levels (PC-3 cells [4]; [19]),increased TNF levels (PC-3 cells [5]),surviving fraction (PROb cells [6]; [17]),surviving fraction (PROb cells [6]; [18]),increased TNF levels (PROb cells [7]),increase in TNF-α levels (PC-3 xenografts [8]),induced TNF-α (PC-3 xenografts [9]),increased TNF-α levels (PROb xenografts [10]),other results
"O=c1[nH]cc(F)c(=O)[nH]1 [5-FU, 5-fluorouracil]",1.7 fold,20%,80%,1.9 fold,67.4 fold,1.8 fold,38%,69%,2.3 fold,4.4 fold,4.2 fold,1.9 fold,
"CC(=O)N[C@@H](CS)C(=O)O [NAC, N-Acetylcysteine]",,,,,,,,,,,,,"effect on concentration of TNF-α protein (PC-3 cells [11]; Ad.Egr-TNF.11D transduced PC-3 cells treated with cisplatin, 5-FU, gemcitabine and paclitaxel, 20 mM NAC): significantly decreased the concentration of TNF-α protein; effect on concentration of TNF-α protein (PC-3 cells [11]; PC-3 cells infected with Ad.Egr-TNF.11D and treated with 100 mM 5-FU, NAC 10 mM to 30 mM): decrease the concentration of TNF-α protein; effect on induction of TNF-α (PROb cells [12]; PROb cells treated with cisplatin, 5-FU, gemcitabine or paclitaxel (data not shown)): significantly reduced the induction of TNF-α; effect on induction of TNF-α (PROb cells [12]; PROb cells, 3 μM doxorubicin, 20 mM NAC): significantly reduced the induction of TNF-α"
N.N.[Cl][Pt][Cl] [cisplatin],,60%,90%,2.6 fold,,6.5 fold,77%,77%,1.6 fold,3.1 fold,3.5 fold,1.9 fold,"increase in TNF-α levels (PROb cells [1]): 1.3 fold; increase in TNF-α levels (PC-3 cells [4]): 3.8 fold; tumor regression (PROb xenografts [13]): moderate tumor regression; LA (Egr-1 promoter [14]; PROb cells transfected with pGL3 425, 50 μM cisplatin): 49.40; increase in LA (Egr-1 promoter [14]; PROb cells transfected with pGL3 425, 50 μM cisplatin vs untreated control): 3.6 fold; LA (Egr-1 promoter [15]; Seg-1 cells transfected with pGL3 425, 50 μM cisplatin): 2.89; increase in LA (Egr-1 promoter [15]; Seg-1 cells transfected with pGL3 425, 50 μM cisplatin vs untreated control): 2.0 fold; tumor regression (Seg-1 xenografts): moderate tumor regression"
"O=P1(N(CCCl)CCCl)NCCCO1 (centres unmarked) [cyclophosphamide, Cyclophosphamide]",,,,3.0 fold,,,,,,4.4 fold,4.4 fold,2.8 fold,
"CC(=O)O[C@H]1C(=O)[C@@]2(C)[C@H]([C@H](OC(=O)c3ccccc3)[C@]3(O)C[C@H](OC(=O)[C@H](O)[C@@H](NC(=O)c4ccccc4)c4ccccc4)C(C)=C1C3(C)C)[C@]1(OC(C)=O)CO[C@@H]1C[C@@H]2O [paclitaxel, Paclitaxel]",4.5 fold,10%,80%,,1.7 fold,1.8 fold,8%,85%,3.0 fold,,,,"systemic toxicity (PROb xenografts [3]; mouse, in vivo): severe systemic toxicity"
Gemcitabine diphosphate,3.5 fold,,,2.5 fold,2.7 fold,,,,5.4 fold,3.1 fold,,1.8 fold,
